Laboratory results published in patent publication US8455510B2.

Assays:
[1] = system: allogeneic antigen-induced mouse spleen lymphocytes; assay: Mixed lymphocyte culture, 3H-TdR incorporation; assay type: cell-based, C57BL/6 and BALB/C mice
Method: Preparation of Stimulator Cells: a Cell Suspension of Balb/C Mouse Spleen Lymphocytes was irradiated by cesium 137 at 3000 Rads using a Gamma radiometer (Gammacell 3000) to make the cells lose their proliferation ability. After washed by RPMI-1640 for 2 times, the cell concentration was adjusted to 5×10^6/ml.
Preparation of responder cells: C57BL/6 mouse spleen lymphocytes were used as the responder cells, and the cell concentration was 5×10^6/ml.
Mixed lymphocyte culture: 50 μl cell suspension of C57BL/6 mouse spleen lymphocytes was inoculated on a 96-well plate, and 50 μl cell suspension of BALB/C mouse spleen lymphocytes treated by cesium 137 was added therein, followed by addition of 50 μl compound at different concentrations. The total volume for each well was 200 μl. If the total volume was less than 200 μl, it was supplemented with RMPI-1640 medium. The tests were divided into 3 groups, i.e., BALB/C mouse group, C57BL/6 mouse group and BALB/C and C57BL/6 mice mixed culture group. The test was carried out in triplicate wells for each concentration, and included control wells without the compound, with only the stimulator cells and with only the responder cells. The 96-well plate was incubated in an incubator at 37° C. with 5% CO2 for 3 to 5 days. 8 hours before the end of incubation, 25 μl of ^3H-thymidine (10 μCi/ml) was added in each well. After the incubation was completed, cells were harvested by a cell harvester on a glass fiber film. After addition of a scintillation fluid, the amount of ^3H-TdR incorporated in cell DNA was determined by a Beta cell counter (MicroBeta Trilux, PerkinElmer), and the cell proliferation was represented as a cpm value.

[2] = system: T Cells; assay: Immunosuppressive activity assay: T cells inhibitory activity; assay type: cell-based; details: T-cell; Table 10
[3] = system: normal mouse spleen B lymphocytes induced by LPS; assay: 3H-TdR incorporation, LPS-induced B lymphocyte proliferation; assay type: cell-based, BALB/c mice; details: read-out: IC50, proliferation of B lymphocytes induced by LPS
Method: ^3H-thymidine incorporation was adopted to measure the effect of the in vitro administered compound on the proliferation function of the spleen lymphocytes of normal mice induced by a mixed culture of mitogen/allogeneic mouse spleen lymphocytes, and evaluate the in vitro immunosuppressive activity of the compound.
Measurement of the effects of compounds on the proliferation function of mouse spleen lymphocytes induced by mitogen by ^3H-TdR incorporation: 100 μl cell suspension of mouse spleen lymphocytes was inoculated on a 96-well plate (4×10^5 per well), followed by addition of 50 μl of ConA (final concentration: 5 μg/ml), 50 μl of LPS (final concentration: […]) or 50 μl of compound at different concentrations. The total volume of each well was 200 μl. The test was carried out in triplicate wells for each concentration, and included control wells without ConA/LPS or the compound. After the 96-well plate was placed in an incubator at 37° C. with 5% CO2 for 48 hours, 25 μl of ^3H-thymidine (10 μCi/ml) was added in each well 8 hours before the end of incubation. […] The amount of ^3H-TdR incorporated in cell DNA was determined by a Beta cell counter (MicroBeta Trilux, PerkinElmer), and the cell proliferation was represented as a cpm value.

[4] = in vivo; assay type: in vivo; details: nude, mouse, in vivo
[5] = MTT cytotoxicity on mouse spleen lymphocytes; assay type: cell-based, BALB/c mice; details: BALB/c, MTT assay
Method: 3-(4,5-dimethylthylthiazol-2-yl)-2,5-diphenyl tetrazolium bromide (MTT) assay was adopted to measure the effect of the in vitro administered compound on the activity of the spleen lymphocytes of normal mice, and evaluate the cytotoxicity of the compound.
They were dissolved in DMSO before testing to prepare a stock solution, which was diluted to a desired concentration with the medium when use.
100 μl cell suspension of mouse spleen lymphocytes was inoculated on a 96-well plate (4×10^5 per well), and the compound at different concentrations was added therein, including additional solvent control or medium background control, wherein, the total volume of each well was 200 μl. After the 96-well plate was placed in an incubator at 37° C. with 5% CO2 for 48 hours, 20 μl (5 mg/ml) of MTT solution was added 6 to 7 hours before the end of incubation. Then after the incubation was completed, 100 μl of supernatant was removed for each well, and 100 μl of […] was added therein. After the 96-well plate was placed in the incubator for 6 to 7 hours, OD values were determined on an ELISA Reader at the wavelength of 570 nm.

CO[C@H]1C[C@@H]2CC[C@@H](C)[C@@](O)(O2)C(=O)C(=O)N2CCCC[C@H]2C(=O)O[C@H]([C@H](C)C[C@@H]2CC[C@@H](O)[C@H](OC)C2)CC(=O)[C@H](C)/C=C(\C)[C@@H](O)[C@@H](OC)C(=O)[C@H](C)C[C@H](C)/C=C/C=C/C=C/1C [Rapamycin]
CPM Mean value ([1]; 0.1342 nM): 4788
CPM Mean value ([1]; 0.3355 nM): 3157
CPM Mean value ([1]; 0.8389 nM): 1955
CPM Mean value ([1]; 2.0972 nM): 1638
CPM Mean value ([1]; 32.768 nM): 956
CPM Mean value ([1]; 81.9 nM): 1012
CPM Mean value ([1]; 204.8 nM): 848
CPM Mean value ([1]; 512 nM): 1068
CPM Mean value ([1]; 1280 nM): 967
CPM Mean value ([1]; 3200 nM): 840
CPM Mean value ([1]; 8000 nM): 780
CPM Mean value ([1]; 20000 nM): 362
inhibition at 0.0001342 µM ([1]; Mus musculus, Lymphocyte, 0.1342 nM): 35%
inhibition at 0.0003355 µM ([1]; Mus musculus, Lymphocyte, 0.3355 nM): 57%
inhibition at 0.0008389 µM ([1]; Mus musculus, Lymphocyte, 0.8389 nM): 73%
inhibition at 0.0020972 µM ([1]; Mus musculus, Lymphocyte, 2.0972 nM): 78%
inhibition at 0.0052429 µM ([1]; Mus musculus, Lymphocyte, 5.2429 nM): 83%
inhibition at 0.013107 µM ([1]; Mus musculus, Lymphocyte, 13.107 nM): 83%
inhibition at 0.032768 µM ([1]; Mus musculus, Lymphocyte, 32.768 nM): 87%
inhibition at 0.0819 µM ([1]; Mus musculus, Lymphocyte, 81.9 nM): 86%
inhibition at 0.2048 µM ([1]; Mus musculus, Lymphocyte, 204.8 nM): 88%
inhibition at 0.512 µM ([1]; Mus musculus, Lymphocyte, 512 nM): 85%
inhibition at 1.28 µM ([1]; Mus musculus, Lymphocyte, 1280 nM): 87%
inhibition at 3.2 µM ([1]; Mus musculus, Lymphocyte, 3200 nM): 89%
inhibition at 8 µM ([1]; Mus musculus, Lymphocyte, 8000 nM): 89%
inhibition at 20 µM ([1]; Mus musculus, Lymphocyte, 20000 nM): 95%
IC50 [2]: 4.2 µM
IC50 [3]: 0.0488 µM
AUC0-t (ng · h/g or ng · h/ml) [4]: 1455 ng·h/mL
Sirolimus concentration, Liver, Mean Value ([4]; 0.5 h): 473 ng/g
Sirolimus concentration, Tumor, Mean Value ([4]; 0.5 h): 20.6 ng/g
Sirolimus concentration, Blood Plasma, Mean Value ([4]; 2 h): 121 ng/mL
Sirolimus concentration, Liver, Mean Value ([4]; 2 h): 193 ng/g
Sirolimus concentration, Tumor, Mean Value ([4]; 2 h): 50.8 ng/g
Sirolimus concentration, Blood Plasma, Mean Value ([4]; 5 h): 84.7 ng/mL
Sirolimus concentration, Liver, Mean Value ([4]; 5 h): 139 ng/g
Sirolimus concentration, Tumor, Mean Value ([4]; 5 h): 41.7 ng/g
Sirolimus concentration, Liver, Mean Value ([4]; 12 h): 54.2 ng/g
Sirolimus concentration, Tumor, Mean Value ([4]; 12 h): 33.2 ng/g
Sirolimus concentration, Blood Plasma, Mean Value ([4]; 48 h): 4.04 ng/mL
Sirolimus concentration, Liver, Mean Value ([4]; 48 h): 15.8 ng/g
Sirolimus concentration, Tumor, Mean Value ([4]; 48 h): 25.9 ng/g
CC50 at 48 h [5]: 45.5 µM
